Read-outs that look alike come from different tables or passages of the source.
Legend:
Format in all cases: cell-based
[1] = biological target: Human Cav 2.2 channels (Homo sapiens, UniProt Q00975); assay: Fluorescent assay for CaV2.2 channels using potassium depolarization (VIPR/FLIPR); conditions: FLIPR data
Procedure, shortened: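 HEK293 cells stably expressing human Cav2.2 with α2δ and β subunits plus Kir2.3 were loaded with fluo-4 and incubated 30 min at 25 °C with compound in 4, 12, 25 or 30 mM potassium buffer. Channels were opened with 70 mM potassium (final) and calcium influx was read by fluorescence (Ex 480/Em 535 nm).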

[2] = biological target: T-type calcium channel (Homo sapiens, UniProt O95180); assay: T-type channel blocking, FLIPR data (Table 6); conditions: for CAv3.2 IC50 Ratio closed/inact.: CAv3.2, ratio closed/inact.
Source text: (§1) Another method, high-throughput spectrophotometric assay, utilizes loading of the cell lines with a fluorescent dye sensitive to intracellular calcium concentration and subsequent examination of the effects of compounds on the ability of depolarization by potassium chloride or other means to alter intracellular calcium levels.

[3] = biological target: T-type calcium channel (Homo sapiens, UniProt O43497); assay: T-type channel blocking, FLIPR data (Table 6); conditions: CAv3.1
Source text: as §1

[4] = biological target: CAv1.2 (Homo sapiens, UniProt Q13936); assay: L-type (CAv1.2) channel blocking, FLIPR data (Table 6)
[5] = closed state, read-out: CAv2.2 IC50 Closed
[6] = inactivated state, read-out: CAv2.2 IC50 Inact.
[7] = CAv3.2, closed state, read-out: CAv3.2 IC50 Closed
[8] = CAv3.2, inactivated state, read-out: CAv3.2 IC50 Inact.
[9] = closed state, read-out: CAv1.2 IC50 Closed
[10] = inactivated state, read-out: CAv1.2 IC50 Inact.

Chain of T-type calcium channel (Homo sapiens, UniProt O95180) (O95180 whole entry): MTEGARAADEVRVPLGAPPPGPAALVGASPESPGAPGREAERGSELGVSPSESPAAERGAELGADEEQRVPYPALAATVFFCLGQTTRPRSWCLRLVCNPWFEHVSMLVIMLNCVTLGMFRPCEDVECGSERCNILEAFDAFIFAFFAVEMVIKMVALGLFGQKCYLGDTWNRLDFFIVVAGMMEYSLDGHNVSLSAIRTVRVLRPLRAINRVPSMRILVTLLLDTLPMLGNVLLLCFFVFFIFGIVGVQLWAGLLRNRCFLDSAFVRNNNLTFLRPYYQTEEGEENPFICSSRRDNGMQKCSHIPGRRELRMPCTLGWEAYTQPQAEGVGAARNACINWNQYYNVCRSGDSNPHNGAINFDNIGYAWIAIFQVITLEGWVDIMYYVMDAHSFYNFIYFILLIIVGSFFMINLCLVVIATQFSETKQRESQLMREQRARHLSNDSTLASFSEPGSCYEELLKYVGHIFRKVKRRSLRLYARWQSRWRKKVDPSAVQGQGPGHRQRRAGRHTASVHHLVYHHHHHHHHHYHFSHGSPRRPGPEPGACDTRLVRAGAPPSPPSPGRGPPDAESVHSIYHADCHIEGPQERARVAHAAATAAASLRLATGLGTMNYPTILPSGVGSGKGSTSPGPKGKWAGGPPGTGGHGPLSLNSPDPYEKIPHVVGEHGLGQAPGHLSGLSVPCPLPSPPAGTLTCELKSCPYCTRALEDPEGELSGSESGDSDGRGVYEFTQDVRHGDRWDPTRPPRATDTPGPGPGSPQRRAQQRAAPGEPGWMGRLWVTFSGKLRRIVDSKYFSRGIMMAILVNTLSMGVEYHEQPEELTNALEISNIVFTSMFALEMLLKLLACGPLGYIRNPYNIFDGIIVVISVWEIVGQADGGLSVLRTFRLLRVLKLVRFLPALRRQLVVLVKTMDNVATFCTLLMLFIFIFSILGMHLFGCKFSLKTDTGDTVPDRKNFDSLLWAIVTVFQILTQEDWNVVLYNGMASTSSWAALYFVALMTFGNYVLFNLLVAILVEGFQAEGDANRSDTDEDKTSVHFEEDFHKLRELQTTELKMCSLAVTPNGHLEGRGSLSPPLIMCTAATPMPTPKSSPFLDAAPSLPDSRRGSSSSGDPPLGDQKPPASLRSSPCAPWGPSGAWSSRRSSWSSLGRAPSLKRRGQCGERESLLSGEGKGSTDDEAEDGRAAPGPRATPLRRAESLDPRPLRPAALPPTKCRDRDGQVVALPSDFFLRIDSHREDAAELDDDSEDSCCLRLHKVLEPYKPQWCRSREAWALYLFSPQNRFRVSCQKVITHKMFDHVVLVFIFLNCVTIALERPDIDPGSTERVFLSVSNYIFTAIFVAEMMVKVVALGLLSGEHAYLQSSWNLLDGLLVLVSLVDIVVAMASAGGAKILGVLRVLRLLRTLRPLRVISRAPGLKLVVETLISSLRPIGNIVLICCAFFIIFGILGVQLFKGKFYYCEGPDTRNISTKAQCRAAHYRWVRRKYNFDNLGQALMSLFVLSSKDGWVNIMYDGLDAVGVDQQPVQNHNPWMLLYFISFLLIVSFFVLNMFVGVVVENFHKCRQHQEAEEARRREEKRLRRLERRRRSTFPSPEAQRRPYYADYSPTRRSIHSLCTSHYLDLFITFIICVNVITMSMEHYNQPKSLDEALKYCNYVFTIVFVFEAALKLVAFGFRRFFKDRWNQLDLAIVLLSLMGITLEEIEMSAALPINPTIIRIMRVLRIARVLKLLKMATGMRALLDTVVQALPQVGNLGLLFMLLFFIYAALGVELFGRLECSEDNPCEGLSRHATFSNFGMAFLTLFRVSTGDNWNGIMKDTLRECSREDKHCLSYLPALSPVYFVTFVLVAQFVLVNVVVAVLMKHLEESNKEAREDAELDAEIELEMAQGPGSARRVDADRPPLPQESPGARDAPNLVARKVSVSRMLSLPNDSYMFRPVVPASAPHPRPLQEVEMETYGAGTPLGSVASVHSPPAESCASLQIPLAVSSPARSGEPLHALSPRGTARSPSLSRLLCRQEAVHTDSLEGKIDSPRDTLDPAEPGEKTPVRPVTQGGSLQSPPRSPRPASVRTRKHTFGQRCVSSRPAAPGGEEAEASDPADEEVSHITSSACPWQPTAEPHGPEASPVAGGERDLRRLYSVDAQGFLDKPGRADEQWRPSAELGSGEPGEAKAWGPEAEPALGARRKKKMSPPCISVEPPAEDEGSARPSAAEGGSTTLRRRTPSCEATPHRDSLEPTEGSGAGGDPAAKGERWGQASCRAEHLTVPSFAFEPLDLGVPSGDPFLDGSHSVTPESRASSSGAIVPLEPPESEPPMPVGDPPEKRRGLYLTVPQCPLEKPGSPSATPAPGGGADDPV
Chain of T-type calcium channel (Homo sapiens, UniProt O43497) (O43497 whole entry): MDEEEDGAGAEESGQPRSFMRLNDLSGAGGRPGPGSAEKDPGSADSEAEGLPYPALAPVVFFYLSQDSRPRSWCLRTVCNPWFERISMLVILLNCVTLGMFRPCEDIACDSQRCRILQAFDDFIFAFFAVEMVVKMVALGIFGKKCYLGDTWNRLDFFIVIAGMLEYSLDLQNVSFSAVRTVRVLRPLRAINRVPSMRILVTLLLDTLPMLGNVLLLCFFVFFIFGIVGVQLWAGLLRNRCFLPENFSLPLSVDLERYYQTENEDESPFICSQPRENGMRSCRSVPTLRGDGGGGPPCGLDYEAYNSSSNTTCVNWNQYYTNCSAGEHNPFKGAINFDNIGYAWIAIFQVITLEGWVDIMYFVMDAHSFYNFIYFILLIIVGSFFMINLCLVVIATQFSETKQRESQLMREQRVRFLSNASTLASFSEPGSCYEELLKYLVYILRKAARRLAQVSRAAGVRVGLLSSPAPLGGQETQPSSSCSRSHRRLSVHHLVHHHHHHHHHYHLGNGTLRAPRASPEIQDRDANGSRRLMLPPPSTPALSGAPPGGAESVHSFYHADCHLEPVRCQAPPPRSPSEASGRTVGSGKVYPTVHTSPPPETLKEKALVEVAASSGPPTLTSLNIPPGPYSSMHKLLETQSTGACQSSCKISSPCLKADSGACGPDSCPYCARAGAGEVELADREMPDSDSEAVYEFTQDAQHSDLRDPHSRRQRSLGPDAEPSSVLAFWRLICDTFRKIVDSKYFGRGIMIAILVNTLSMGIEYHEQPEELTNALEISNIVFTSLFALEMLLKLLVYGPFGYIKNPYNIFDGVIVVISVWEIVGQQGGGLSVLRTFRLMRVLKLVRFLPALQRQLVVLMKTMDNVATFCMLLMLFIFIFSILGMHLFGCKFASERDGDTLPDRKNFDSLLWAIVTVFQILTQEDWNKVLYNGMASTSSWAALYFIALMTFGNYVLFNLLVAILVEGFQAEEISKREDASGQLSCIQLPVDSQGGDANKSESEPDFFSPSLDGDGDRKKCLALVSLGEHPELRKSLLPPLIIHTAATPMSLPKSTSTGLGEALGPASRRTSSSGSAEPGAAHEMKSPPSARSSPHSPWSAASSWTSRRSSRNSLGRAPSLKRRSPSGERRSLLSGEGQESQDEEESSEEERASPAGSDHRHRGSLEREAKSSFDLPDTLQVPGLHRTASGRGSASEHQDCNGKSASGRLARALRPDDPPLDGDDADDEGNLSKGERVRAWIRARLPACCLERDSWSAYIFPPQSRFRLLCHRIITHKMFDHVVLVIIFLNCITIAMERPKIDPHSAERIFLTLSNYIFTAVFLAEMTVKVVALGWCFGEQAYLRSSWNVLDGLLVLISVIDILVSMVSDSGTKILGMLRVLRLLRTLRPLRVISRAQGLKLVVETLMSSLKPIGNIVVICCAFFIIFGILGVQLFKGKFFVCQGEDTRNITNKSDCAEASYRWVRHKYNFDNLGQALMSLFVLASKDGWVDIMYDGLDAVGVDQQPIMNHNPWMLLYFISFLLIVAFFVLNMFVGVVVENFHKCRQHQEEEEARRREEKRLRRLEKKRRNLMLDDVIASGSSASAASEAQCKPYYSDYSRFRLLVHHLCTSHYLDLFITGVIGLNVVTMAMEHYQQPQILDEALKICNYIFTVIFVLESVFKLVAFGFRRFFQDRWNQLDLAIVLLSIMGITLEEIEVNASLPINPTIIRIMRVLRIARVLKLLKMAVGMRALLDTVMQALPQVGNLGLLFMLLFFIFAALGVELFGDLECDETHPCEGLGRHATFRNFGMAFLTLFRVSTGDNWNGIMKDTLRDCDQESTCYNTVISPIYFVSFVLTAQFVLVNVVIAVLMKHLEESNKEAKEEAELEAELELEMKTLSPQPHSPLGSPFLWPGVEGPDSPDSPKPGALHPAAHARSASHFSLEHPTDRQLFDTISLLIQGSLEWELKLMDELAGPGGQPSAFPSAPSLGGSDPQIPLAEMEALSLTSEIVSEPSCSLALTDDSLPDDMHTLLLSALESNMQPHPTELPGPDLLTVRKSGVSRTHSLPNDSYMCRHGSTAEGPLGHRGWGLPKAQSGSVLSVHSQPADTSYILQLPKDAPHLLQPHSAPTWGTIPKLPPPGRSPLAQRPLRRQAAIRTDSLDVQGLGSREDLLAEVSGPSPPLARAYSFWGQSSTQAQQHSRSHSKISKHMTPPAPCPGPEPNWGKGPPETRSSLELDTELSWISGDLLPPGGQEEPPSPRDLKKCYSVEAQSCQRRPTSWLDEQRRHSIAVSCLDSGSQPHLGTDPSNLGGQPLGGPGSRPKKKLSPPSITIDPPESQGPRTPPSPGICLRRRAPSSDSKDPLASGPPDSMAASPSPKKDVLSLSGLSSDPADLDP

| SMILES | IC50 [1, 5] [µM] | IC50 [1, 6] [µM] | CAv2.2 IC50 Ratio closed/inact. [1] | IC50 [2, 7] [µM] | IC50 [2, 8] [µM] | CAv3.2 IC50 Ratio closed/inact. [2] | IC50 [3] [µM] | IC50 [4, 9] [µM] | IC50 [4, 10] [µM] | CAv1.2 IC50 Ratio closed/inact. [4] |
| --- | --- | --- | --- | --- | --- | --- | --- | --- | --- | --- |
| Cn1nc(C(F)(F)F)cc1C(=O)N1CC(CS(=O)(=O)c2cc(F)cc(C(F)(F)F)c2)C1 [Compound 748] | 10 | 5.24 | 1.9 | ≥ 10 | 8.42 | 1.2 | ≥ 10 | ≥ 10 | ≥ 10 |  |
| O=C(NC[C@H]1C[C@H](S(=O)(=O)c2cccc(Cl)c2)C1)c1ccc(C(F)(F)F)cc1 [Compound 771] | 10 | 2.01 | 5 | 5.44 | 3.04 | 1.8 | ≥ 10 | ≥ 10 | ≥ 10 |  |
| CC(C)([C@H]1C[C@@H](C(=O)Nc2ccc(C(F)(F)F)nc2)C1)S(=O)(=O)c1cccc(C(F)(F)F)c1 [Compound 759] | 3.67 | 0.48 | 7.6 | 3.55 | 2.07 | 1.7 | 2.27 | 5.1 | 2.18 | 2.3 |
| CC(C)(C[C@H]1C[C@@H](NC(=O)[C@H]2CCCC[C@@H]2N)C1)S(=O)(=O)c1cccc(C(F)(F)F)c1 [Compound 745] | 4.22 | 1.21 | 3.5 | ≥ 10 | 10 | 1 | ≥ 10 | 8.68 | ≥ 10 | 0.9 |
| CC(C)(C[C@H]1C[C@@H](NC(=O)[C@H]2CCCC[C@H]2N)C1)S(=O)(=O)c1cccc(C(F)(F)F)c1 [Compound 744] | 4.11 | 0.94 | 4.4 | ≥ 10 |  |  | ≥ 10 | ≥ 10 | ≥ 10 |  |
| CC(C)(C[C@H]1C[C@@H](NC(=O)[C@@H]2CCCC[C@H]2N)C1)S(=O)(=O)c1cccc(C(F)(F)F)c1 [Compound 741] | 3.86 | 1.31 | 2.9 | ≥ 10 | 10 | 1 | ≥ 10 | ≥ 10 | ≥ 10 |  |
| CC(C)([C@H]1C[C@H](C(=O)NCc2ccc(C(F)(F)F)nc2)C1)S(=O)(=O)c1cccc(C(F)(F)F)c1 [Compound 767] | 5.37 | 0.57 | 9.4 | ≥ 10 | 9.57 | 1 | ≥ 10 | ≥ 10 | 5.14 | 1.9 |
| O=C(NC[C@H]1C[C@H](S(=O)(=O)c2cccc(Cl)c2)C1)c1ccc(OCC(F)(F)F)nc1 [Compound 775] | 10 | 5.78 | 1.7 | 8.66 | 1.62 | 5.3 | ≥ 10 | ≥ 10 | ≥ 10 |  |
| CC(C)(C[C@H]1C[C@@H](NC(=O)[C@@H]2CCCC[C@@H]2N)C1)S(=O)(=O)c1cccc(C(F)(F)F)c1 [Compound 740] | 3.91 | 0.85 | 4.6 | ≥ 10 | 10 | 1 | ≥ 10 | ≥ 10 | ≥ 10 |  |
| O=C(NC[C@H]1C[C@H](S(=O)(=O)c2cccc(Cl)c2)C1)c1ccc(Cl)cn1 [Compound 772] |  | 5.67 | 1.8 | ≥ 10 | 10 | 1 |  | ≥ 10 |  |  |
| CC(C)(C[C@H]1C[C@H](NC(=O)[C@H]2CCCC[C@@H]2N)C1)S(=O)(=O)c1cccc(C(F)(F)F)c1 [Compound 743] | 3.37 | 1.46 | 2.3 |  | 10 |  |  | ≥ 10 | ≥ 10 |  |
| N[C@@H]1CCCC[C@@H]1C(=O)NC[C@H]1C[C@H](S(=O)(=O)c2cccc(Cl)c2)C1 [Compound 780] | 10 | ≥ 10 | 1 | ≥ 10 |  |  |  | ≥ 10 | ≥ 10 |  |

The next compounds have a lower IC50 [1, 6] than those just listed; values first:

| IC50 [1, 5] [µM] | IC50 [1, 6] [µM] | CAv2.2 IC50 Ratio closed/inact. [1] | IC50 [2, 7] [µM] | IC50 [2, 8] [µM] | CAv3.2 IC50 Ratio closed/inact. [2] | IC50 [3] [µM] | SMILES | IC50 [4, 9] [µM] | IC50 [4, 10] [µM] | CAv1.2 IC50 Ratio closed/inact. [4] |
| --- | --- | --- | --- | --- | --- | --- | --- | --- | --- | --- |
| 3.4 | 0.42 | 8.1 | 4.6 | 1.5 | 3.1 | 2.01 | CC(C)([C@H]1C[C@H](C(=O)Nc2ccc(C(F)(F)F)cc2)C1)S(=O)(=O)c1cccc(C(F)(F)F)c1 [Compound 765] | 6.71 | 2.25 | 3 |
| 2.54 | 0.39 | 6.5 | 4.06 | 1.97 | 2.1 | 2.13 | CC(C)([C@H]1C[C@@H](C(=O)Nc2ccc(C(F)(F)F)cn2)C1)S(=O)(=O)c1cccc(C(F)(F)F)c1 [Compound 758] | 3.56 | 1.88 | 1.9 |
| 3.9 | 0.39 | 10 | 3.52 | 1.2 | 2.9 | 1.59 | CC(C)([C@H]1C[C@@H](C(=O)Nc2ccc(C(F)(F)F)cc2)C1)S(=O)(=O)c1cccc(C(F)(F)F)c1 [Compound 756] | 4.19 | 1.37 | 3.1 |
| 4.98 | 0.34 | 14.6 | 5.36 | 3.78 | 1.4 | 4.72 | Cn1nc(C(F)(F)F)cc1NC(=O)[C@H]1C[C@H](C(C)(C)S(=O)(=O)c2cccc(C(F)(F)F)c2)C1 [Compound 769] | 8.49 | 1.47 | 5.8 |
| 3.8 | 0.33 | 11.5 | ≥ 10 | 1.63 | 6.1 | 4.45 | CC(C)([C@H]1C[C@@H](CNc2ccc(F)c(Cl)c2)C1)S(=O)(=O)c1cccc(C(F)(F)F)c1 [Compound 753] | 7.42 | 1.51 | 4.9 |
| 3.93 | 0.3 | 13.1 | ≥ 10 | 1.48 | 6.8 | 4.53 | CC(C)([C@H]1C[C@H](CNc2ccc(Cl)c(F)c2)C1)S(=O)(=O)c1cccc(C(F)(F)F)c1 [Compound 751] | 4.72 | 1.35 | 3.5 |
| 2.04 | 0.27 | 7.6 | 7.02 | 0.96 | 7.3 | 6.44 | CC(C)([C@H]1C[C@H](C(=O)Nc2ccc(C(F)(F)F)cc2Cl)C1)S(=O)(=O)c1cccc(C(F)(F)F)c1 [Compound 763] | ≥ 10 | 2.19 | 4.6 |
| 2.33 | 0.17 | 13.7 | ≥ 10 | 0.74 | 13.5 | 3.37 | CC(C)([C@H]1C[C@H](CNc2ccc(F)c(Cl)c2)C1)S(=O)(=O)c1cccc(C(F)(F)F)c1 [Compound 750] | 3.42 | 0.99 | 3.5 |
| 1.6 | 0.15 | 10.7 | ≥ 10 | 1.71 | 5.8 | 4.19 | CC(C)([C@H]1C[C@H](C(=O)Nc2ccc(Cl)cn2)C1)S(=O)(=O)c1cccc(C(F)(F)F)c1 [Compound 761] | 8.54 | 4.61 | 1.9 |
| 1.69 | 0.13 | 13 | 4.2 | 2.38 | 1.8 | 2.65 | CC(C)([C@H]1C[C@H](C(=O)Nc2ccc(C(F)(F)F)cn2)C1)S(=O)(=O)c1cccc(C(F)(F)F)c1 [Compound 766] | 3.72 | 2.07 | 1.8 |
| 1.02 | 0.11 | 9.3 | 2.9 | 0.43 | 6.7 | 0.78 | CC(C)([C@H]1C[C@H](C(=O)NCc2ccc(Oc3ccccc3)cc2)C1)S(=O)(=O)c1cccc(C(F)(F)F)c1 [Compound 764] | 3.24 | 0.83 | 3.9 |

— patent US20120245137A1 (Zalicus Pharmaceuticals Ltd., priority 2009, published 2012)
